Key:
HUV-EC-C cells [1] = assay: HUV-EC-C assay, a-FGF (ECGF)-induced [3H]thymidine incorporation; type: cell-based, human; conditions: a-FGF-stimulated HUV-EC cells; read-out: Mitogenesis in Endothelial Cells, [3H] Thymidine Incorporation, HUV-EC Assay, a-FGF
Method: (§1) Repeat the wash two more times with D-PBS, resuspend the cells in about 1 ml assay medium/15 cm^2 of tissue culture flask.
(§2) Add cells to 96-well flat-bottom plates at 100 μl/well or 0.8-1.0×10^4 cells/well; incubate ˜24 h at 37° C., 5% CO2.
(§3) Use the same assay medium as mentioned in day 0, step 2 above. Titrations are made by adding 90 μl/well of drug at 200 μM (4× the final well concentration) to the top well of a particular plate column. Since the stock drug concentration-is usually 20 mM in DMSO, the 200 μM drug concentration contains 2% DMSO.
(§4) Therefore, diluent made up to 2% DMSO in assay medium (F12K+0.5% fetal bovine serum) is used as diluent for the drug titrations in order to dilute the drug but keep the DMSO concentration constant. Add this diluent to the remaining wells in the column at 60 μl/well. Take 60 μl from the 120 μl of 200 μM drug dilution in the top well of the column and mix with the 60 μl in the second well of the column. Take 60 μl from this well and mix with the 60 μl in the third well of the column, and so on until two-fold titrations-are completed. When the next-to-the-last well is mixed, take 60 μl of the 120 μl in this well and discard it. Leave the last well with 60 μl of DMSO/media diluent as a non-drug-containing control. […] 9 columns of titrated drug, enough for triplicate wells each for 1) VEGF (obtained from Pepro Tech Inc., catalogue no. 100-200, 2) endothelial cell growth factor (ECGF) (also known as acidic fibroblast growth factor, or aFGF) (obtained from Boehringer Mannheim Biochemica, catalogue no. […] ECGF comes as a preparation with sodium heparin.
(§5) Transfer 50 μl/well of the drug dilutions to the 96-well assay plates containing the 0.8-1.0×10^4 cells/100 μl/well of the HUV-EC-C cells from day 0 and incubate ˜2 h at 37° C., 5% CO2.
(§6) In triplicate, add 50 μl/well of 80 μg/ml VEGF, 20 ng/ml ECGF, or media control to each drug condition. As with the drugs, the growth factor concentrations are 4× the desired final concentration. Use the assay media from day 0 step 2 to make the concentrations of growth factors.
Freeze plates overnight at −20° C.

EpH4-VEGF = assay: FLK-1/Xenograft Model, subcutaneous tumor growth; type: in vivo, mice
Method: Assay 2: FLK-1/Xenograft Model.
The ability of the compounds of the present invention to inhibit ovarian, melanoma, prostate, lung and mammary tumor cell lines established as SC xenografts was examined. These studies were conducted using doses ranging from 1 to 75 mg/kg/day.
Materials And Methods. The tumor cells were implanted subcutaneously into the indicated strains of mice. Treatment was initiated on day 1 post implantation unless otherwise indicated (e.g. treatment of the SCID mouse related to the A375 melanoma cell line began on Day 9). Eight (8) to sixteen (16) mice comprised each test group.
Animals. Female athymic mice (BALB/c, nu/nu), BALB/c mice, Wistar rats and Fisher 344 rats were obtained from Simonsen Laboratories (Gilroy, Calif.). Female A/I mice were obtained from Jackson Laboratory (Bar Harbor, Me.). DA rats were obtained from B&K Universal, Inc. (Fremont, Calif.). Athymic R/Nu rats, DBA/2N mice, and BALB/c mice were obtained from Harlan Sprague Dawley (Indianapolis, Ind.). Female C57BL/6 mice were obtained from Taconic (Germantown, N.Y.). […]
Subcutaneous Xenograft Model. […] Tumor growth was measured over 3 to 6 weeks using venier calipers tumor volumes were calculated as a product of length×width×height unless otherwise indicated. P values were calculated using the Students' t-test. […]

HER2 Kinase = biological target: T1, HER2 Kinase (Homo sapiens, UniProt P04626); assay: HER-2 ELISA (whole-cell HER2 kinase activity); type: cell-based; conditions: whole cells
T1 construct: fused on or other part: Candidate partner: EGFR extracellular domain (P00533) in place of HER2's own ectodomain if Assay 1 was used; none if Assay 2 (BT-474) was used
T1 sequence (P04626 720-987 limits assumed): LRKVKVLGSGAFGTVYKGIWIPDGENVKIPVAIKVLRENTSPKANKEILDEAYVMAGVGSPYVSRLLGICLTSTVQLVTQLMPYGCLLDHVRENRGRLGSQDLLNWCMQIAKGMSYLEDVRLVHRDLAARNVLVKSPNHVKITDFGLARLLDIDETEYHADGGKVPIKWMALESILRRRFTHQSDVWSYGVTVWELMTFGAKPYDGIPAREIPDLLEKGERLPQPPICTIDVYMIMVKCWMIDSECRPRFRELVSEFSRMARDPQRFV
Method: Assay 1: EGF Receptor-HER2 Chimeric Receptor Assay In Whole Cells. HER2 kinase activity in is whole EGFR-NIH3T3 cells was measured as described below:
Materials and Reagents. The following materials and reagents were used to conduct the assay: • a. […] Anti-phosphotyrosine antibody (anti-Ptyr) (polyclonal) (see, Fendley, et al., supra). • d. Detection antibody: Goat anti-rabbit lgG horse radish peroxidase conjugate, TAGO, Inc., Burlingame, Calif. • e. TBST buffer:
Stock reagents of: • EDTA 100 mM pH 7.0 • Na3VO4 0.5 M • Na4(P2O7) 0.2 M
(§7) Procedure. The following protocol was used:
Coated plates are good for up to 10 days when stored at 4° C.
On day of use, remove coating buffer and replace with 100 μl blocking buffer (5% Carnation Instant Non-Fat Dry Milk in PBS). Incubate the plate, shaking, at room temperature (about 23° C. to 25° C.) for 30 minutes. Just prior to use, remove blocking buffer and wash plate 4 times with TBST buffer.
An NIH3T3 cell line overexpressing a chimeric receptor containing the EGFR extracellular domain and extracellular HER2 kinase domain can be used for this assay.
Choose dishes having 80-90% confluence for the experiment. Trypsinize cells and stop reaction by adding 10% fetal bovine serum. Suspend cells in DMEM medium (10% CS DMEM medium) and centrifuge once at 1500 rpm, at room temperature for 5 minutes.
Resuspend cells in seeding medium (DMEM, 0.5% bovine serum), and count the cells using trypan blue. Viability above 90% is acceptable. Seed cells in DMEM medium (0.5% bovine serum) at a density of 10,000 cells per well, 100 μl per well, in a 96 well microtiter plate. Incubate seeded cells in 5% CO2 at 37° C. for about 40 hours.
Check seeded cells for contamination using an inverted microscope. Dilute drug stock (10 mg/ml in DMSO) 1:10 in DMEM medium, then transfer 5 l to a TBST well for a final drug dilution of 1:200 and a final DMSO concentration of 1%. Control wells receive DMSO alone. Incubate in 5% CO2 at 37° C. for two hours.
Prepare EGF ligand: dilute stock EGF in DMEM so that upon transfer of 10 μl dilute EGF (1:12 dilution), 100 nM final concentration is attained.
Prepare fresh HNTG* sufficient for 100 μl per well; and place on ice.
After 120 minutes incubation with drug, add prepared SGF ligand to cells, 10 μl per well, to a final concentration of 100 nM. Control wells receive DMEM alone. Incubate, shaking, at room temperature, for 5 minutes.
Remove drug, EGF, and DMEM. Wash cells twice with PBS. Transfer HNTG* to cells, 100 μl per well. Place on ice for 5 minutes. Meanwhile, remove blocking buffer from other ELISA plate and wash with TBST as described above. […]
The maximal phosphotyrosine signal is determined by subtracting the value of the negative controls from the positive controls.

FLK-1 receptor = biological target: T2, FLK-1 receptor (Mus musculus, UniProt P35918); assay: FLK-1 ELISA in FLK-1/NIH3T3 cells; type: cell-based; conditions: ELISA, FLK-1/NIH3T3 cells, VEGF stimulated
T2 construct: expressed in transfected cells; host or cells: NIH3T3 C7 #3
T2 sequence (P35918 20-1345): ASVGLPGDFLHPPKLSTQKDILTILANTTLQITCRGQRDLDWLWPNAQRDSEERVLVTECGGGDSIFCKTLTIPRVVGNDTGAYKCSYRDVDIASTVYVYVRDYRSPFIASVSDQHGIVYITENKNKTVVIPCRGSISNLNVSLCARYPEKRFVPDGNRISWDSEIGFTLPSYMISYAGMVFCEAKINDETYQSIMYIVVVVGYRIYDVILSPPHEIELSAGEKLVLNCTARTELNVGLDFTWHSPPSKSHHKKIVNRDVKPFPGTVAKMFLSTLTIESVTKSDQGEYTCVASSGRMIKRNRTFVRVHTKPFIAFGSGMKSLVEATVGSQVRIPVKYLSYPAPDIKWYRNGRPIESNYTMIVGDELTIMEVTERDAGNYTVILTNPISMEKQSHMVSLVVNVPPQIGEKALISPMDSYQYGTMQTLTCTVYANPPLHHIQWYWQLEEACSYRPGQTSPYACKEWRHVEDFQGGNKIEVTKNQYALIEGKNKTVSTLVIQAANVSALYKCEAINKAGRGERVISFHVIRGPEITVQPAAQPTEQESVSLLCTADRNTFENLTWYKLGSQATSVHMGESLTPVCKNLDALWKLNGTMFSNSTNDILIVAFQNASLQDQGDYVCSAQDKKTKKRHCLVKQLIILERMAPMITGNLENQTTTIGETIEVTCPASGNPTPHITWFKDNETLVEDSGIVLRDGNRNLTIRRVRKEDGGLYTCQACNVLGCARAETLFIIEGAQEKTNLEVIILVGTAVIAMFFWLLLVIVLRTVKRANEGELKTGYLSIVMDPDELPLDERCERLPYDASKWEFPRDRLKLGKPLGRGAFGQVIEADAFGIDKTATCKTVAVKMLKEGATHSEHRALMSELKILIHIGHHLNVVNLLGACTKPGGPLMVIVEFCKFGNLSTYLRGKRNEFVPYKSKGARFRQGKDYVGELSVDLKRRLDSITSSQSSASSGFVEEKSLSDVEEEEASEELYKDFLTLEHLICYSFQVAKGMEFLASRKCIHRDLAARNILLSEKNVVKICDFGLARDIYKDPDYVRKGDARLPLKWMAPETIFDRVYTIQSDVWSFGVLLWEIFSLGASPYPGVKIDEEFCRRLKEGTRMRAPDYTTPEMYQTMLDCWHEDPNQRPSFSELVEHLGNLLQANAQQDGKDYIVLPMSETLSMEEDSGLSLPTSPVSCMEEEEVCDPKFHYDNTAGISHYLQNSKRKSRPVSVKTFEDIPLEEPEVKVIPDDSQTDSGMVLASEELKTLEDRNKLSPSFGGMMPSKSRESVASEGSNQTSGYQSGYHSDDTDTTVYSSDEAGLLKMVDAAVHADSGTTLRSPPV

HUV-EC-C cells [2] = assay: HUV-EC-C assay, VEGF-induced [3H]thymidine incorporation; type: cell-based, human; conditions: VEGF-stimulated HUV-EC cells; read-out: Mitogenesis in Endothelial Cells, [3H] Thymidine Incorporation, HUV-EC Assay, VEGF
Method: as §1, §2, §3, §4, §5, §6
Freeze plates overnight at −20° C.

PDGFR = assay: PDGF-R ELISA (receptor phosphotyrosine in whole cells); type: cell-based; conditions: U1242 cells
Method: All cell culture media, glutamine, and fetal bovine serum were purchased from Gibco Life Technologies (Grand Island, N.Y.) unless otherwise specified. […] All cell lines were routinely subcultured twice a week and were negative for mycoplasma as determined by the Mycotect method (Gibco).
For ELISA assays, cells (U1242, obtained from Joseph Schlessinger, NYU) were grown to 80-90% confluency in growth medium (MEM with 10% FBS, NEAA, 1 mM NaPyr and 2 mM GLN) and seeded in 96-well tissue culture plates in 0.5% serum at 25,000 to 30,000 cells per well. After overnight incubation in 0.5% serum-containing medium, cells were changed to serum-free medium and treated with test compound for 2 hr in a 5% CO2, 37° C. incubator. […] Lysates were incubated with shaking for 1 hour at room temperature. The plates were washed with TBST four times and then incubated with polyclonal anti-phosphotyrosine antibody at room temperature for 30 minutes. Excess anti-phosphotyrosine antibody was removed by rinsing the plate with TBST four times. Goat anti-rabbit IgG antibody was added to the ELISA plate for 30 min at room temperature followed by rinsing with TBST four more times. […] Absorbance at 410 nm with a reference wavelength of 630 nm was recorded about 15 to 30 min after ABTS addition.

[3] = test system: 3T3/PDGFR + PDGF (T) cells; assay: 3T3/PDGF-βR/PDGF-BB(T) Cell Growth SRB Assay; type: cell-based; conditions: NIH 3T3 cells expressing PDGF-βR and PDGF-ββ, tumor-derived; read-out: Cell Growth Assay, SRB Readout, 3T3/PDGFR + PDGF (T) IC50
Method: Assay 3: 3T3/PDGF-βR/PDGF-BB(T) Cell Growth SRB Assay
This part of assay is carried out in a laminar flow hood.
Trypsinize cells as usual. Transfer 200 μl of cell suspension to 10 ml of isotone. Count cells on the Coulter Counter.
Dilute cells in growth medium to 60,000 cells/ml. Transfer 100 μl of cells to each well in a 96-well flat bottom plate to give 6000 cells/well.
Gently shake plates to allow for uniform attachment of the cells to the plate.
Incubate the plates at 37° C. in a 10% CO2 incubator.
Day 1: Addition of Compound: same as for Assay 1.
Day 5: Development of Assay: same as for Assay 1.

EGF Receptor = biological target: T3, EGF Receptor (Homo sapiens, UniProt P00533); assay: EGF Receptor ELISA (EGFR-NIH3T3 assay); type: cell-based; conditions: EGFR-NIH3T3 whole cells
T3 construct: expressed in transfected cells; host or cells: NIH 3T3/C7 (3T3/EGFRc7)
T3 sequence (P00533 25-1210): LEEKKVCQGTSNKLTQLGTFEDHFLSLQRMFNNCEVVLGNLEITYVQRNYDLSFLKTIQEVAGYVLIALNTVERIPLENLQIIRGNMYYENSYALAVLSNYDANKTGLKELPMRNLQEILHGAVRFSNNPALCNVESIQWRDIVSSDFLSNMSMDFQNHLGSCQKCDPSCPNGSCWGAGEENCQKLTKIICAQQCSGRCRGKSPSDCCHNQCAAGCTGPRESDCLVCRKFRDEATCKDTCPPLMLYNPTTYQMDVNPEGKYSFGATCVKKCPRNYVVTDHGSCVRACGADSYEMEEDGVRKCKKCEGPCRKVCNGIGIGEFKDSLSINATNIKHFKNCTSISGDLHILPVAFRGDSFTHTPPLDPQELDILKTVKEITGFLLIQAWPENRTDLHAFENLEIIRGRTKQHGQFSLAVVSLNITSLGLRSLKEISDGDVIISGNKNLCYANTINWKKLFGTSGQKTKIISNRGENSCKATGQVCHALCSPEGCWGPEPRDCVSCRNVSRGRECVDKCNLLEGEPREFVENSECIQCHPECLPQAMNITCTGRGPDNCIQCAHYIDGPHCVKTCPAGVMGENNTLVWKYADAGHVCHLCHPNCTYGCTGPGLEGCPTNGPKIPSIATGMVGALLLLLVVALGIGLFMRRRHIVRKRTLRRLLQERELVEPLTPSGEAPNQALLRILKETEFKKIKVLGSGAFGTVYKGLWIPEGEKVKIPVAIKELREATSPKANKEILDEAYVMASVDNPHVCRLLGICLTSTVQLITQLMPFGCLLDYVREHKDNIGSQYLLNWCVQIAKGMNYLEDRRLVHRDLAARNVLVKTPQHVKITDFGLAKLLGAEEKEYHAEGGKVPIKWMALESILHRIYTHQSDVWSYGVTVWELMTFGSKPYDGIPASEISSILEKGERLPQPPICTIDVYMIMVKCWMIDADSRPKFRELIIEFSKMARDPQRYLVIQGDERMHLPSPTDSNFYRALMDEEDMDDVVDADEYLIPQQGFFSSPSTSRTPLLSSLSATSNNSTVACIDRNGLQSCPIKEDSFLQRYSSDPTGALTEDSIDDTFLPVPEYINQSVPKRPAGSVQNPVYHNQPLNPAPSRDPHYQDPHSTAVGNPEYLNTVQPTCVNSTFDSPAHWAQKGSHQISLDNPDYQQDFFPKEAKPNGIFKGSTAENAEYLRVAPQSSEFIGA
Method: EGF Receptor kinase activity (EGFR-NIH3T3 assay) in whole cells was measured as described below:
Materials and Reagents. The following materials and reagents were used • a. […] Anti-phosphotyosine antibody (anti-Ptyr) (polyclonal). • d. Detection antibody: Goat anti-rabbit lgG horse radish peroxidase conjugate, TAGO, Inc., Burlingame, Calif. • e. TBST buffer:
• Keep solution in dark at 4° C. until used. • h. Stock reagents of: • EDTA 100 mM pH 7.0 • Na3VO4 0.5 M • Na4(P2O7) 0.2 M
as §7
1. […] Coated plates are good for up to 10 days when stored at 4° C.
2. On day of use, remove coating buffer and replace with blocking buffer (5% Carnation Instant NonFat Dry Milk in PBS). Incubate the plate, shaking, at room temperature (about 23° C. to 25° C.) for 30 minutes. Just prior to use, remove blocking buffer and wash plate 4 times with TBST buffer.
2. Choose dishes having 80-90% confluence for the experiment. Trypsinize cells and stop reaction by adding. 10% CS DMEM medium. Suspend cells in DMEM medium (10% CS DMEM medium) and centrifuge once at 1000 rpm, and once at room temperature for 5 minutes.
3. Resuspend cells in seeding medium (DMEM, 0.5% bovine serum), and count the cells using trypan blue. Viability above 90% is acceptable. Seed cells in DMEM medium (0.5% bovine serum) at a density of 10,000 cells per well, 100 μl per well, in a 96 well microtiter plate. Incubate seeded cells in 5% CO2 at 37° C. for about 40 hours.
1. Check seeded cells for contamination using an inverted microscope. Dilute drug stock (10 mg/ml in DMSO) 1:10 in DMEM medium, then transfer 5 μl to a test well for a final drug dilution of 1:200 and a final DMSO concentration of 1%. Control wells receive DMSO alone. Incubate in 5% CO2 at 37° C. for one hour.
5. […] Control wells receive. DMEM alone. […]
The maximal phosphotyrosine signal is determined by subtracting the value of the negative controls from the positive controls. The percent inhibition of phosphotyrosine content for extract-containing wells is then calculated, after subtraction of the negative controls.

## O=C1Nc2ccccc2C1=Cc1ccc(Br)cc1 [SU4942, 3-(4-Bromobenzylidenyl)-2-indolinone]
HUV-EC-C cells [1]
  IC50: 4.6 µM
EpH4-VEGF; @ 25 mg/kg
  EpH4-VEGF % inhibition @ mg/kg: 47% @ 25
EpH4-VEGF; @ 50 mg/kg
  EpH4-VEGF % inhibition @ mg/kg: 46% @ 50

## CN1C(=O)C(=Cc2ccc(Br)cc2)c2ccccc21 [SU4956, 3-(4-Bromobenzylidenyl)-1-methyl-2-indolinone]
HER2 Kinase
  IC50: 22.5 µM

## CN1C(=O)C(=Cc2ccc(N3CCOCC3)cc2)c2ccccc21 [SU4982, 1-Methyl-3-[4-(morpholin-4-yl)benzylidenyl]-2-indolinone]
FLK-1 receptor
  IC50: 21.6 µM
HER2 Kinase
  IC50: 39.4 µM

## O=CN1CCN(c2ccc(C=C3C(=O)Nc4ccccc43)cc2)CC1 [SU4984, 3-[4-(4-Formylpiperazin-1-yl)benzylidenyl]-2-indolinone]
FLK-1 receptor
  IC50: 1.6 µM
HUV-EC-C cells [2]
  IC50: 0.8 µM
HER2 Kinase
  IC50: 90.2 µM
HUV-EC-C cells [1]
  IC50: 25.8 µM
PDGFR
  IC50: 5.8 µM
[3]
  IC50: 22.2 µM

## COc1ccccc1C=C1C(=O)Nc2ccccc21 [SU5214, 3-(2-Methoxybenzylidenyl)-2-indolinone]
FLK-1 receptor
  IC50: 14.8 µM
EGF Receptor
  IC50: 36.7 µM

## O=C1Nc2ccccc2C1=Cc1ccc(N2CCCCC2)cc1 [SU5450, 3-[4-(Piperidin-1-yl)benzylidenyl]-2-indolinone]
FLK-1 receptor
  IC50: 4.5 µM
HER2 Kinase
  IC50: 92.6 µM

## CCc1ccc(C=C2C(=O)Nc3ccccc32)s1 [SU5451, 3-[(2-Ethylthien-5-yl)methylene]-2-indolinone]
FLK-1 receptor
  IC50: 3.4 µM
EGF Receptor
  IC50: 44 µM

## COc1ccc(C=C2C(=O)Nc3ccccc32)c(Cl)c1 [SU5480, 3-[2-Chloro-4-methoxybenzylidenyl]-2-indolinone]
FLK-1 receptor
  IC50: 5.3 µM
EGF Receptor
  IC50: 39.6 µM
